Assay results reported in ChEMBL document CHEMBL1144113, “Methanol adduct of puupehenone, a biologically active derivative from the marine sponge Hyrtios species” (J Nat Prod, 1999).
≈ marks a conversion by molar mass, not a printed value.

What was measured:
Candida tropicalis = experiment: Antifungal activity against Candida tropicalis at 50 ug/disk after 48 hrs by paper disk method; format: functional; settings: read-out: IZ
KB = experiment: Cytotoxicity against human KB cells by neutral red assay; format: functional, cell-based
Plasmodium falciparum [1] = experiment: Antimalarial activity against chloroquine-sensitive Plasmodium falciparum F32 in human erythrocytes after 48 hrs by [G-3H]hypoxanthine uptake; format: functional, organism-based; settings: F32, 48 h
Plasmodium falciparum [2] = experiment: Antimalarial activity against chloroquine-resistant Plasmodium falciparum FcB1 in human erythrocytes after 48 hrs by [G-3H]hypoxanthine uptake; format: functional, organism-based; settings: FcB1, 48 h
Plasmodium falciparum [3] = experiment: Antimalarial activity against chloroquine-resistant Plasmodium falciparum PFB in human erythrocytes after 48 hrs by [G-3H]hypoxanthine uptake; format: functional, organism-based
Staphylococcus aureus = experiment: Antibacterial activity against Staphylococcus aureus at 1 ug/disk after 24 hrs by paper disk method; format: functional; settings: read-out: IZ
[4] = Toxicity against Artemia salina; format: organism-based; settings: in vivo

Row | SMILES | zone of inhibition at 50 µg/disc (Candida tropicalis) [mm] | IC50 (KB) [µg/mL] | IC50 (Plasmodium falciparum [1]) [µg/mL] | IC50 (Plasmodium falciparum [2]) [µg/mL] | IC50 (Plasmodium falciparum [3]) [µg/mL] | zone of inhibition at 1 µg/disc (Staphylococcus aureus) [mm] | LC50 [4] [µg/mL]
1 | CO[C@@H]1c2cc(O)c(O)cc2O[C@@]2(C)CC[C@H]3C(C)(C)CCC[C@]3(C)[C@@H]12 | 9 | 6 (≈ 16.6 µM) | 0.4 (≈ 1.11 µM) | 1.4 (≈ 3.88 µM) | 1.2 (≈ 3.33 µM) | 7 | –
2 | CO[C@@H]1c2cc(OC(C)=O)c(OC(C)=O)cc2O[C@@]2(C)CC[C@H]3C(C)(C)CCC[C@]3(C)[C@@H]12 | – | – | 0.6 (≈ 1.35 µM) | 1.4 (≈ 3.15 µM) | 1.2 (≈ 2.7 µM) | – | –
3 | CC1(C)CCC[C@]2(C)[C@H]3C=C4C=C(O)C(=O)C=C4O[C@@]3(C)CC[C@@H]12 [PUUPEHENONE] | – | 0.5 (≈ 1.52 µM) | 0.6 (≈ 1.83 µM) | 2.1 (≈ 6.39 µM) | 1.5 (≈ 4.57 µM) | – | 20 (≈ 60.9 µM)
